Experimental data from patent US20110319379A1, “Substituted Indazole Amides And Their Use As Glucokinase Activators” (priority 2009, published 2011).

Each compound was assayed against T1, recombinant human glucokinase (Homo sapiens, UniProt P35557) (assay: Assay 2: Evaluating Activator Potency in a Matrix Assay at Multiple Glucose Concentrations). Details: Assay 2 matrix assay; 16 glucose concentrations; intrinsic EC50 = concentration affording a 50% reduction in the enzyme's Km (for glucose); read-out: Glucokinase EC50.
T1 construct: Full-length glucokinase (beta cell isoform) was His-tagged at the N-terminus and purified by a Ni column followed by size exclusion chromatography as described above; His tag; made in house; host or cells: E. coli BL21(DE3), vector pBCGK
T1 sequence (P35557 1-465): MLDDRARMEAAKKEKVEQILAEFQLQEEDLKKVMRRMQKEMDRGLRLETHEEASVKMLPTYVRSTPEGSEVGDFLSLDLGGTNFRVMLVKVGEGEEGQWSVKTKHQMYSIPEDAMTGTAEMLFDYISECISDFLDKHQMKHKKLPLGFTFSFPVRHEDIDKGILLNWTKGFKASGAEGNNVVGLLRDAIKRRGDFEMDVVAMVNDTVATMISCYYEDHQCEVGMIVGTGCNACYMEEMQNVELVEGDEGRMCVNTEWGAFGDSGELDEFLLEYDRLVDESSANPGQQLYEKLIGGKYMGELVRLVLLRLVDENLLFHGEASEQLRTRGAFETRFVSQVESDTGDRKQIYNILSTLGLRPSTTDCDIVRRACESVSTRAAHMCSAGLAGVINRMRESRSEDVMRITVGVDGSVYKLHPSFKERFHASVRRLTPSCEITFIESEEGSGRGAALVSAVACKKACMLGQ
Assay type: biochemical
Procedure: Representative compounds of this invention were evaluated in biochemical assays (Assay 1 or Assay 2) to characterize their glucokinase activation properties.
The recombinant human glucokinase protein utilized in both assays was prepared and purified as described below.
BL21(DE3) cells (Invitrogen Corporation, Carlsbad, Calif.) containing pBCGK (C or N H is) vector were grown at 37° C. (in 2XYT) until the OD600 was between 0.6-1.0. Expression was induced by addition of isopropylthiogalactoside to a final concentration of 0.1-0.2 mM to the cells which were then incubated overnight at 23° C. The next day, cells were harvested via centrifugation at 5000 rpm for 15 minutes at 4° C. The cell pellet was stored at −80° C. for future purification.
Beta Cell Glucokinase His-Taq Purification Conditions: A Ni-NTA (Quigan, Germantown, Md.) column (15-50 mL) was used for separation. Two buffers were prepared, 1) a lysis/nickel equilibration and wash buffer and 2) a nickel elution buffer. The lysis/equilibration/wash buffer was prepared as such: 25 mM HEPES buffer at pH 7.5, 250 mM NaCl, 20 mM imidazole, and 14 mM β-mercaptoethanol as final concentrations. The elution buffer was prepared as such: 25 mM HEPES at pH 7.5, 250 mM NaCl, 400 mM imidazole, and 14 mM β-mercaptoethanol as final concentrations. The buffers were each filtered with a 0.22 μm filter prior to use. The cell pellet (1 L culture) was resuspended in 300 mL of the lysis/equilibration buffer. The cells were then lysed (3 times) with a Microfluidics Model 110Y microfluidizer (Microfluidics Corporation, Newton, Mass.). The slurry was centrifuged with a Beckman Coulter Model LE-80K ultracentrifuge (Beckman Coulter, Fullerton, Calif.) at 40,000 rpm for 45 minutes at 4° C. The supernatant was transferred to a chilled flask. A volume of 20 μl was saved for gel analysis. A Pharmacia AKTA (GMI, Inc., Ramsey, Minn.) purification system was used for separation. The prime lines were purged with lysis/equilibration buffer. The Ni-NTA column was equilibrated with 200 mL of the lysis/equilibration buffer at a flow rate of 5 mL/minute. The supernantant was loaded over the column at 4 mL/minute and the flow-through was collected in a flask. The unbound proteins were washed with lysis/equilibration buffer at a flow rate of 5 mL/minute until the ultraviolet reaches baseline. The protein was then eluted from the column with the imidazole elution buffer via imidazole gradient 20 mM to 400 mM over 320 mL. The column was then stripped of any additional protein with 80 mL of the elution buffer. The elution fractions were each 8 mL, for a total yield of 50 samples. Fractions were analyzed by sodium dodecyl sulfate polyacrylamide (SDS-PAGE) and the fractions containing protein of interest were pooled and concentrated to 10 mL using ultrafiltration cell with a 10,000 molecular weight cut-off (MWCO) Millipore membrane (Sigma-Aldrich, St. Louis, Mo.) under nitrogen gas (60 psi). Protein was further purified by size exclusion chromatography (SEC) using a […] (320 mL) (Amersham Pharmacia, Uppsala, Sweden). SEC was equilibrated with 450 mL sizing buffer containing 25 mM HEPES pH 7.0, 50 mM NaCl, and 5 mM dithiothreitol. Concentrated protein was then loaded over SEC and elution with 400 mL sizing buffer was performed overnight at 0.5 mL/minute. The elution fractions were 5 mL each. The fractions were analyzed by SDS-PAGE and protein containing fractions were pooled. Concentration was measured using Bradford Assay/BSA Standard. Purified protein was stored in small aliquots at −80° C.
Assay 2: Evaluating Activator Potency in a Matrix Assay at Multiple Glucose Concentrations
Utilizing an adaptation of this method, representative compounds of the current invention were evaluated at 22 different concentrations and 16 different glucose concentrations in a coupled enzyme assay system that detects glucokinase activity via depletion of β-NADH.

SMILES | EC50 [µM]
CCn1cc2c(Oc3cnc(C(=O)N(C)C)c(F)c3)cc(C(=O)Nc3cnccn3)cc2n1 [Example 1BB, 4-(6-(dimethylcarbamoyl)-5-fluoropyridin-3-yloxy)-2-ethyl-N-(pyrazin-2-yl)-2H-indazole-6-carboxamide] | 0.195
CCn1cc2c(Oc3cnc(C(=O)N(C)C)nc3)cc(C(=O)Nc3ccc(C)cn3)cc2n1 [Example 1BD, 4-(2-(dimethylcarbamoyl)pyrimidin-5-yloxy)-2-ethyl-N-(5-methylpyridin-2-yl)-2H-indazole-6-carboxamide] | 0.383
CCOc1cnc(NC(=O)c2cc(Oc3ccc(S(N)(=O)=O)cc3)c3cn(CC)nc3c2)cn1 [Example 1BI, 4-[4-(aminosulfonyl)phenoxy]-N-(5-ethoxypyrazin-2-yl)-2-ethyl-2H-indazole-6-carboxamide] | 49.9
CN(C)S(=O)(=O)c1ccc(Oc2cc(C(=O)Nc3ccn(C)n3)cc3nn(C)cc23)cc1 [Example 1BK, 4-{4-[(dimethylamino)sulfonyl]phenoxy}-2-methyl-N-(1-methyl-1H-pyrazol-3-yl)-2H-indazole-6-carboxamide] | 1.01
CNS(=O)(=O)c1ccc(Oc2cc(C(=O)Nc3ccn(C)n3)cc3nn(C)cc23)cc1 [Example 1BL, 2-methyl-4-{4-[(methylamino)sulfonyl]phenoxy}-N-(1-methyl-1H-pyrazol-3-yl)-2H-indazole-6-carboxamide] | 1.8
CCn1ccc(NC(=O)c2cc(Oc3ccc(S(C)(=O)=O)cc3)c3cn(CC)nc3c2)n1 [Example 1BM, 2-ethyl-N-(1-ethyl-1H-pyrazol-3-yl)-4-[4-(methylsulfonyl)phenoxy]-2H-indazole-6-carboxamide] | 1.9
Cn1ccc(NC(=O)c2cc(Oc3cnc(C(=O)N4CCCC4)cn3)c3cn(C)nc3c2)n1 [Example 1BO, 2-methyl-N-(1-methyl-1H-pyrazol-3-yl)-4-(5-(pyrrolidine-1-carbonyl)pyrazin-2-yloxy)-2H-indazole-6-carboxamide] | 0.25
CCn1cc2c(Oc3cnc(C(=O)N4CCCC4)cn3)cc(C(=O)Nc3cnc(C)cn3)cc2n1 [Example 1BP, 2-ethyl-N-(5-methylpyrazin-2-yl)-4-(5-(pyrrolidine-1-carbonyl)pyrazin-2-yloxy)-2H-indazole-6-carboxamide] | 0.29
CCn1cc2c(Oc3cnc(C(=O)N(C)C)cn3)cc(C(=O)Nc3ccn(C)n3)cc2n1 [Example 1BU, 4-(5-(dimethylcarbamoyl)pyrazin-2-yloxy)-2-ethyl-N-(1-methyl-1H-pyrazol-3-yl)-2H-indazole-6-carboxamide] | 1.05
CC(C)n1cc2c(Oc3cnc(C(=O)N(C)C)cn3)cc(C(=O)Nc3ccn(C)n3)cc2n1 [Example 1BV, 4-(5-(dimethylcarbamoyl)pyrazin-2-yloxy)-2-isopropyl-N-(1-methyl-1H-pyrazol-3-yl)-2H-indazole-6-carboxamide] | 1.59
Cn1cc2c(Oc3cnc(C(=O)N4CCCC4)cn3)cc(C(=O)Nc3cnn(C)n3)cc2n1 [Example 1BW, 2-methyl-N-(2-methyl-2H-1,2,3-triazol-4-yl)-4-(5-(pyrrolidine-1-carbonyl)pyrazin-2-yloxy)-2H-indazole-6-carboxamide] | 4.64

Second part, the compound after the results:

EC50 [µM] | SMILES
0.368 | Cc1cnc(NC(=O)c2cc(Oc3cnc(C(=O)N4CCC4)c(F)c3)c3cn(C)nc3c2)cn1 [Example 1BC, 4-(6-(azetidine-1-carbonyl)-5-fluoropyridin-3-yloxy)-2-methyl-N-(5-methylpyrazin-2-yl)-2H-indazole-6-carboxamide]
0.456 | COc1cnc(NC(=O)c2cc(Oc3cnc(C(=O)N(C)C)c(F)c3)c3cn(C)nc3c2)cn1 [Example 1BE, 4-(6-(dimethylcarbamoyl)-5-fluoropyridin-3-yloxy)-N-(5-methoxypyrazin-2-yl)-2-methyl-2H-indazole-6-carboxamide]
0.203 | CCOc1cnc(NC(=O)c2cc(Oc3ccc(S(C)(=O)=O)cc3)c3cn(CC)nc3c2)cn1 [Example 1BG, N-(5-ethoxypyrazin-2-yl)-2-ethyl-4-[4-(methylsulfonyl)phenoxy]-2H-indazole-6-carboxamide]
0.536 | CCc1cnc(NC(=O)c2cc(Oc3ccc(S(C)(=O)=O)cc3)c3cn(CC)nc3c2)cn1 [Example 1BH, 2-ethyl-N-(5-ethylpyrazin-2-yl)-4-[4-(methylsulfonyl)phenoxy]-2H-indazole-6-carboxamide]
0.684 | CNS(=O)(=O)c1ccc(Oc2cc(C(=O)Nc3cnc(OC)cn3)cc3nn(C)cc23)cc1 [Example 1BN, N-(5-methoxypyrazin-2-yl)-2-methyl-4-{4-[(methylamino)sulfonyl]phenoxy}-2H-indazole-6-carboxamide]
0.699 | CCn1cc2c(Oc3cnc(C(=O)N4CCC4)cn3)cc(C(=O)Nc3ccn(C)n3)cc2n1 [Example 1BQ, 4-(5-(azetidine-1-carbonyl)pyrazin-2-yloxy)-2-ethyl-N-(1-methyl-1H-pyrazol-3-yl)-2H-indazole-6-carboxamide]
0.79 | CCn1cc2c(Oc3cnc(C(=O)N4CCC4)cn3)cc(C(=O)Nc3cnc(C)cn3)cc2n1 [Example 1BR, 4-(5-(azetidine-1-carbonyl)pyrazin-2-yloxy)-2-ethyl-N-(5-methylpyrazin-2-yl)-2H-indazole-6-carboxamide]
0.798 | Cn1ccc(NC(=O)c2cc(Oc3cnc(C(=O)N4CCC4)cn3)c3cn(C)nc3c2)n1 [Example 1BS, 4-(5-(azetidine-1-carbonyl)pyrazin-2-yloxy)-2-methyl-N-(1-methyl-1H-pyrazol-3-yl)-2H-indazole-6-carboxamide]
0.979 | CC(C)n1cc2c(Oc3cnc(C(=O)N4CCC4)cn3)cc(C(=O)Nc3ccn(C)n3)cc2n1 [Example 1BT, 4-(5-(azetidine-1-carbonyl)pyrazin-2-yloxy)-2-isopropyl-N-(1-methyl-1H-pyrazol-3-yl)-2H-indazole-6-carboxamide]

Same assay, conditions: Glucokinase EC50, Assay 2 matrix assay; 16 glucose concentrations; intrinsic EC50 = concentration affording a 50% reduction in the enzyme's Km (for glucose)

EC50 [µM] | SMILES
0.108 | CCn1cc2c(Oc3cnc(C(=O)N4CCC4)c(F)c3)cc(C(=O)Nc3cnc(C)cn3)cc2n1 [Example 1AZ, 4-(6-(azetidine-1-carbonyl)-5-fluoropyridin-3-yloxy)-2-ethyl-N-(5-methylpyrazin-2-yl)-2H-indazole-6-carboxamide]
0.191 | CCn1cc2c(Oc3cnc(C(=O)N4CCC4)c(F)c3)cc(C(=O)Nc3ccn(C)n3)cc2n1 [Example 1BA, 4-(6-(azetidine-1-carbonyl)-5-fluoropyridin-3-yloxy)-2-ethyl-N-(1-methyl-1H-pyrazol-3-yl)-2H-indazole-6-carboxamide]
